Source: publication PMC12566703, “Design, Synthesis, In Vitro and In Silico Biological Evaluation of New Pyridine-2,5-Dicarboxylates Esters Bearing Natural Source Fragments as Anti-Trypanosomatid Agents” (Pharmaceutics, 2025)
Where two headings read alike, the source gives them in different places.

Experiments:
[1] = test system: T. cruzi (A1) epimastigotes; test: In vitro trypanocidal activity, Alamar Blue assay, 48 h; type: cell-based, Trypanosoma cruzi; details: for Selectivity Index T. cruzi A1: CC50 (J774.2)/IC50; for IC50: 48 h; for Trypanocidal activity class in words, A1 strain: classes by IC50
Experimental: (§1) Both strains were maintained in liver infusion tryptose (LIT) medium supplemented with 10% FBS and 0.1% penicillin-streptomycin. They were preserved by transferring 1 × 10^6 parasites/mL into a new culture medium every week. […] The metabolic activity was determined by the Alamar Blue assay. Briefly, after the incubation period, 20 µL of 2.5 mM resazurin solution was added to each well and incubated for 3 h. Three independent experiments were performed in triplicate. The half-maximum inhibitory concentration (IC50) was determined using probit analysis.

[2] = test system: T. cruzi (NINOA) epimastigotes; test: as above; type: cell-based, Trypanosoma cruzi; details: for Selectivity Index T. cruzi NINOA: CC50 (J774.2)/IC50; for IC50: 48 h, read-out: T. cruzi IC50 (µM ± SD) NINOA; for IC50 / Trypanocidal activity class in words, NINOA strain: epimastigotes, NINOA strain; for Trypanocidal activity class in words, NINOA strain: classes by IC50
Experimental: as §1

[3] = test system: L. mexicana (MNYC/BZ/62/M379) (M379) promastigotes; test: In vitro leishmanicidal activity, MTT method, 48 h; type: cell-based, Leishmania mexicana; details: for Selectivity Index L. mexicana M379: CC50 (J774.2)/IC50; for IC50: 48 h, read-out: L. mexicana IC50 (µM ± SD) M379; for IC50 / Leishmanicidal activity class in words, M379 strain: promastigotes, M379 strain; for Leishmanicidal activity class in words, M379 strain: classes by IC50
Experimental: (§2) To determine the leishmanicidal activity of pyridine-2,5-dicarboxylates, the parasites, in their logarithmic growth phase (5 × 10^5 parasites/mL), were cultured in 96-well microliter plates with the corresponding pyridine-2,5-dicarboxylate compound at different concentrations (0.78–100 µM). Compounds were dissolved in DMSO in a final volume of 200 µL for 48 h at 26 °C. Parasites treated with DMSO (0.2%) were used as a negative control, while treatments with Glucantime and Amphotericin B, at the same concentrations, were used as positive controls. The metabolic activity of the cells was determined using the 3-(4,5-Dimethylthiazol-2-yl)-2,5-diphenyltetrazolium bromide (MTT) method. IC50 was determined using probit analysis. Three independent experiments were performed in triplicate, and the data were analyzed for statistical significance (p < 0.05) using Biostat 5.3.0 software.

[4] = test system: L. mexicana (MHOM/MX/2017/UABJO17FCQEPS) (FCQEPS) promastigotes; test: In vitro leishmanicidal activity, MTT method, 48 h; type: cell-based, Leishmania mexicana; details: for Selectivity Index L. mexicana FCQEPS: CC50 (J774.2)/IC50; for IC50: Leishmania mexicana, 48 h, read-out: L. mexicana IC50 (µM ± SD) FCQEPS; for IC50 / Leishmanicidal activity class in words, FCQEPS strain: promastigotes, FCQEPS strain; for Leishmanicidal activity class in words, FCQEPS strain: classes by IC50
Experimental: as §2

[5] = Cytotoxicity assay, MTT method, 48 h; type: cell-based, murine; details: mouse, J774.2 macrophage cells, J774.2 cell line, read-out: Macrophage J774.2 CC50 (µM ± SD)
Experimental: A cytotoxicity assay was performed using the murine macrophage J774.2 cell line, which was recloned from the original ascites and solid tumor J774.1 (according to the manufacturer). The cells were cultured in RPMI medium supplemented with 10% SBF, 100 U […] penicillin, 100 µg/mL streptomycin, and glutamine (2 mM), and 5% CO2 atmosphere. The medium was changed every 2–3 days. Macrophages were used at 1 × 10^6 cells and were incubated with compounds at different concentrations (0.75–100 µM, respectively) at 37 °C for 48 h in a 5% CO2 atmosphere. DMSO was used as a negative control (0.2%). The metabolic activity of macrophages was determined by the MTT method. The percentage of cell viability was calculated, and the half-maximal cytotoxic concentration (CC50) was determined using probit analysis. Three independent assays were conducted in triplicate.

[6] = Trypanosoma cruzi, epimastigotes, A1 strain, read-out: T. cruzi IC50 (µM ± SD) A1
[7] = epimastigotes, A1 strain, read-out: T. cruzi IC50 (µM ± SD) A1

SMILES | Selectivity Index T. cruzi A1 [1] | IC50 [1, 6] [µM] | Selectivity Index T. cruzi NINOA [2] | IC50 ([2]; Trypanosoma cruzi) [µM] | Selectivity Index L. mexicana M379 [3] | IC50 ([3]; Leishmania mexicana) [µM] | Leishmanicidal activity class in words, M379 strain [3] | Selectivity Index L. mexicana FCQEPS [4] | IC50 [4] [µM] | CC50 at 48 h [5] [µM] | IC50 [2] [µM] | Trypanocidal activity class in words, NINOA strain [2] | Leishmanicidal activity class in words, FCQEPS strain [4] | Trypanocidal activity class in words, A1 strain ([1]; epimastigotes, A1 strain) | IC50 [1, 7] [µM] | IC50 ([1]; Trypanosoma cruzi, read-out: T. cruzi IC50 (µM ± SD) A1, epimastigotes, A1 strain, 48 h) [µM] | IC50 ([1]; read-out: T. cruzi IC50 (µM ± SD) A1, epimastigotes, A1 strain) [µM] | IC50 [3] [µM]
CCOC(=O)c1nc(C)c(C(=O)OCc2ccc3c(c2)OCO3)cc1-c1ccc(C)cc1 [Compound 6b] | >4.0 | 50.2 ± 2.31 | >3.7 | 54 ± 2.29 | >1 | > 200 | did not have antiparasitic activity | >1 | > 200 | > 200 |  |  |  |  |  |  |  | 
CC1CS(=O)(=O)CCN1/N=C/c1ccc([N+](=O)[O-])o1 (stereo not shown) [Nfx, Nifurtimox, reference compound] |  | 19.3 ± 0.08 |  | 7.09 ± 0.12 |  |  |  |  |  |  |  |  |  |  |  |  |  | 
CCOC(=O)c1nc(C)c(C(=O)O[C@@H]2C[C@@H](C)CC[C@@H]2C(C)C)cc1-c1ccc(C)cc1 [Compound 8b] | >3.9 |  | >1.8 | 106.9 ± 0.5 | >1 |  |  | >1 |  | > 200 | > 200 | slight activity |  |  |  |  |  | 
CCOC(=O)c1cc(-c2ccccc2)c(C(=O)OCC)nc1C [Compound 3a, Diethyl 6-methyl-3-phenylpyridine-2,5-dicarboxylate] | >7.5 |  | >3.6 | ≤ 56.7 | >1 | > 200 | did not have antiparasitic activity | >1 | > 200 | > 200 | 54.5 ± 2.36 | moderate activity | did not have leishmanicidal activity |  |  |  |  | 
CCOC(=O)c1nc(C)c(C(=O)OC/C=C(\C)CCC=C(C)C)cc1-c1ccc(C)cc1 [Compound 12b, (E)-5-(3,7-Dimethylocta-2,6-dien-1-yl) 2-ethyl 6-methyl-3-(p-tolyl)pyridine-2,5-dicarboxylate] | >1 | > 200 | >1 | > 200 | >3.6 |  |  | >3.5 |  | > 200 |  |  |  | completely lose their trypanocidal activity |  |  |  | 
CCOC(=O)c1nc(C)c(C(=O)OCC23CC4CC(CC(C4)C2)C3)cc1-c1ccc(C)cc1 [Compound 10b] | >1.8 | 111 ± 1.14 |  | < 26.4 | >1 | > 200 |  | >2.1 | 92.93 ± 0.02 | > 200 | 20.98 ± 0.15 |  |  |  |  |  |  | 
CCOC(=O)c1nc(C)c(C(=O)O[C@@H]2C[C@H]3CC[C@@]2(C)C3(C)C)cc1-c1ccc(C)cc1 [Compound 9b, 2-Ethyl 5-((1S,2R,4R)-1,7,7-trimethylbicyclo[2.2.1]heptan-2-yl) 6-methyl-3-(p-tolyl)pyridine-2,5-dicarboxylate] | >5.2 | < 40 |  | < 40 | >5.0 |  |  | >2.5 |  | > 200 | 22.3 ± 1.6 |  |  |  | 38.5 |  |  | 
CCOC(=O)c1nc(C)c(C(=O)OC2C[C@@H]3CC[C@@]2(C)C3(C)C)cc1-c1ccccc1 (stereo partly shown) [Compound 9a] | >8.0 | < 29 | >3.6 | 55.8 ± 2.5 | >1 | > 200 | did not have antiparasitic activity | >1 | > 200 | > 200 |  | moderately active (moderately active (IC50 41 to 100 µM)) | did not have leishmanicidal activity |  | 25 ± 2.98 |  |  | 
CCOC(=O)c1nc(C)c(C(=O)OCc2ccc(C)cc2)cc1-c1ccc(C)cc1 [Compound 5b] | >1 | > 200 | >1 | > 200 | >1 | > 200 | did not have antiparasitic activity | >1 | > 200 | > 200 |  |  |  | completely lose their trypanocidal activity |  |  |  | 
O=C(Cn1ccnc1[N+](=O)[O-])NCc1ccccc1 [Bzn, Benznidazole, reference compound] |  |  |  |  |  |  |  |  |  |  |  |  |  |  |  | < 39 | 39.08 ± 0.07 | 
CCOC(=O)c1nc(C)c(C(=O)O[C@@H]2C[C@@H](C)CC[C@H]2C(C)C)cc1-c1ccc(F)cc1 [Compound 8c, 2-Ethyl 5-((1R,2S,5S)-2-isopropyl-5-methylcyclohexyl) 3-(4-fluorophenyl)-6-methylpyridine-2,5-dicarboxylate] | >9.2 |  | >4.3 | ≤ 56.7 | >1 | > 200 |  | >2.2 | 90.9 ± 5 | > 200 | 46 ± 3.33 |  |  |  |  |  |  | 
CCOC(=O)c1nc(C)c(C(=O)OC/C=C/c2ccccc2)cc1-c1ccccc1 [Compound 7a] | >1 | > 200 | >7.20 | 27.8 ± 1.66 | >1 | > 200 | did not have antiparasitic activity | >1 | > 200 | > 200 |  |  | did not have leishmanicidal activity |  |  |  |  | 
CCOC(=O)c1nc(C)c(C(=O)OCC23CC4CC(CC(C4)C2)C3)cc1-c1ccc(F)cc1 [Compound 10c] | >5.2 | 38.2 ± 2.86 | >4.0 | 50.6 ± 1.06 | >3.6 | < 56 |  | >1 | > 200 | > 200 |  |  | abolished their leishmanicidal activity |  |  |  |  | 54.8
CCOC(=O)c1cc(-c2ccc(C)cc2)c(C(=O)OCC)nc1C [Compound 3b] | >1.9 | 106 ± 1.16 | >3.3 | 59.3 | >1 | > 200 | did not have antiparasitic activity | >1 | > 200 | > 200 | 59.4 ± 1.45 |  |  |  |  |  |  | 
CCOC(=O)c1nc(C)c(C(=O)OC/C=C(\C)CCC=C(C)C)cc1-c1ccccc1 [Compound 12a] | 0.2 | 117.8 ± 0.94 | 0.2 | 106 ± 1.43 |  | > 200 | did not have antiparasitic activity | 0.3 | 75.3 ± 4.28 | 25 ± 0.8 |  | slight trypanocidal activity |  | slight activity |  |  |  | 
CCOC(=O)c1nc(C)c(C(=O)OC/C=C(\C)CCC=C(C)C)cc1-c1ccc(F)cc1 [Compound 12c] | >4.0 | 50.1 ± 1 | >4.1 | 49.1 ± 2.5 | >2.3 | 85.98 ± 0.02 |  | >1.7 | 114 ± 7.03 | > 200 |  |  |  |  |  |  |  | 
